Measured values as given in US20250214993A1, “AROMATIC RING COMPOUND AND USE THEREOF” (SHANGHAI SHIJIANG BIOTECHNOLOGY CO., LTD, priority 2022, published 2025).

Tests used:
Type in all cases: cell-based
[1] = tested on: mPTP-inactive Daoy cell; experiment: Cell viability (Promega CellTiter-Glo), IC50 on mPTP-inactive Daoy cell (PPIF shRNA); conditions: Homo sapiens; Daoy cell transfected with PPIF shRNA vector
[2] = tested on: mPTP-active Daoy cell; experiment: Cell viability (Promega CellTiter-Glo), IC50 on mPTP-active Daoy cell; conditions: Homo sapiens; Daoy cell transfected with empty virus vector
[3] = tested on: Con-NCI-H82 cell; experiment: Cell viability (Promega CellTiter-Glo, intracellular ATP), IC50 on Con-NCI-H82 cell; conditions: Homo sapiens; normal untreated NCI-H82 cell (control)
Excerpt: (§1) The expression of NNMT protein in NCI-H82 cell was overexpressed by inserting the NNMT gene into NCI-H82 cell using a viral vector, and the NNMT protein-overexpressing NCI-H82 cell (ov-NNMT NCI-H82 cell) was obtained. The normal and untreated NCI-H82 cell (Con-NCI-H82 cell) was used as control. The expressing content of NNMT protein in the ov-NNMT NCI-H82 cell and Con-NCI-H82 cell was detected using Western Blot assay (as shown in FIG. 1), it could be seen from FIG. 1 that the NNMT protein was overexpressed in the ov-NNMT NCI-H82 cell compared with the expression level of NNMT protein in the Con-NCI-H82 cell.
(§2) The cell viability was detected using the Promega CellTiter-Glo kit which reflected cell viability by measuring intracellular ATP content. The Con-NCI-H82 cell and ov-NNMT NCI-H82 cell was cultured in 10% fetal bovine serum-containing RPMI1640 medium (+P/S).

[4] = tested on: ov-NNMT NCI-H82 cell; experiment: Cell viability (Promega CellTiter-Glo, intracellular ATP), IC50 on NNMT-overexpressing NCI-H82 cell; conditions: Homo sapiens; NCI-H82 cell overexpressing NNMT protein
Excerpt: as §1, §2

IC50 [4] [µM] | Compound | IC50 [1] [µM] | IC50 [2] [µM] | IC50 [3] [µM]
0.904 | O=C1c2cc(Cl)ccc2CCC1n1ncc2c[n+](Cc3ccccc3)ccc21 (stereo not shown) [AB27500] | 0.62 | 3.18 | 0.122
0.381 | Cc1ccc(C(=O)Cn2ccc3c[n+](C(C)c4ccccc4)ccc32)cc1 (stereo not shown) [AB27261] | 0.18 | 0.38 | 0.023
5.68 | O=C1c2sccc2CCC1[n+]1ccc2c(ccn2Cc2ccccc2)c1 (stereo not shown) [AB27200] | 2.15 | 6.03 | 1.12
4.86 | Cc1ccc(C(=O)C[n+]2ccc(N3CCCCC3)cc2)cc1 [AB27309] | 3.37 | 8.58 | 0.837
0.496 | O=C(Cn1c(Cl)cc2c[n+](Cc3ccccc3)ccc21)c1cccc(C(F)(F)F)c1 [AB27487] | 0.22 | 0.57 | 0.031
1.13 | O=C1c2cc(Cl)ccc2CCC1n1ccc2c[n+](CC3CCCC3)ccc21 (stereo not shown) [AB27316] | 1.17 | 5.89 | 0.167
4.15 | Cc1ccc(C(=O)C[n+]2ccc3c(c2)CCN3Cc2ccccc2)cc1 [AB24995] | 1.98 | 6.32 | 0.92
1.81 | O=C1c2cc(F)ccc2CCC1n1ncc2c[n+](Cc3ccccc3)ccc21 (stereo not shown) [AB31773] | 0.49 | 2.98 | 0.11

The remaining lines, values behind:

Compound | IC50 [4] [µM] | IC50 [1] [µM] | IC50 [2] [µM] | IC50 [3] [µM]
Cc1cn(CC(=O)c2cccc(OC(F)(F)F)c2)c2cc[n+](Cc3ccccc3)cc12 [AB27457] | 6.61 | 2.16 | 8.61 | 0.417
Cn1cc(Cc2ccccc2)c2cc[n+](C3CCc4ccc(C(F)(F)F)cc4C3=O)cc21 (stereo not shown) [AB27338] | 2.36 | 2.09 | 6.62 | 0.391
Cc1ccc(C(=O)CNc2cc[n+](Cc3ccccc3)cc2)cc1 [AB27283] | 3.38 | 3.24 | 10.6 | 0.874
O=C1c2cc(Cl)ccc2CCC1[n+]1ccc2cn(Cc3ccccc3)cc2c1 (stereo not shown) [AB27197] | 1.7 | 1.02 | 3.57 | 0.174
Cc1cn(CC(=O)c2ccc(C(F)(F)F)cc2)c2cc[n+](Cc3ccccc3)cc12 [AB27463] | 10.6 | 4.76 | 10.6 | 2.06
O=C1c2ccc(OC(F)(F)F)cc2CCC1[n+]1ccc2c(ccn2Cc2ccccc2)c1 (stereo not shown) [AB24997] | 3.12 | 2.34 | 8.56 | 0.498
O=C1c2cc(OC(F)(F)F)ccc2CCC1n1ncc2c[n+](Cc3ccccc3)ccc21 (stereo not shown) [AB31775] | 2.09 | 1.39 | 5.38 | 0.124
Cc1ccc2c(c1)CCC(n1ccc3c[n+](Cc4ccccc4)ccc31)C2=O (stereo not shown) [AB27193] | 0.154 | 0.03 | 0.17 | 0.009
O=C1c2ccc(OC(F)(F)F)cc2CCC1[n+]1ccc2c(c1)CC(c1ccccc1)N2 (stereo not shown) [AB27101] | 2.31 | 1.93 | 5.68 | 0.75
Cc1cn(CC(=O)c2cccc(C(F)(F)F)c2)c2cc[n+](Cc3ccccc3)cc12 [AB27458] | 7.72 | 3.01 | 10.3 | 0.748
Cc1c[n+](Cc2ccccc2)cc2ccn(CC(=O)c3cccc(Cl)c3)c12 [AB27257] | 0.968 | 0.88 | 2.16 | 0.075
Cc1ccc(C(=O)Cn2ccc3c[n+](Cc4ccccc4)cc(C)c32)cc1 [AB27256] | 0.253 | 0.12 | 0.33 | 0.022
O=C1c2cc(OC(F)(F)F)ccc2CCC1[n+]1ccc2c(c1)CCC(c1ccccc1)N2 (stereo not shown) [AB27132] | 4.87 | 3.27 | 7.95 | 0.917
Nc1cc[n+](CC(=O)c2ccc(OC(F)(F)F)cc2)cc1 [AB36528] | 19 | 17.9 | 15.7 | 19.5
